From ChEMBL document CHEMBL5244216, “Pyrrole: An insight into recent pharmacological advances with structure activity relationship” (Eur J Med Chem, 2018)

These compounds were tested on Mycobacterium tuberculosis (assay: Antitubercular activity against Multidrug-resistant Mycobacterium tuberculosis H37Rv assessed as reduction in microbial growth by broth dilution method).
Type: functional
Work on `CCOc1cc(C2OC(c3ccc(-n4cccc4)cc3)=NN2C(C)=O)ccc1O` (stereo not given) yielded an MIC of 0.2 µg/mL. For `CO[C@H]1/C=C/O[C@@]2(C)Oc3c(C)c(O)c4c(O)c(c(/C=N/N5CCN(C)CC5)c(O)c4c3C2=O)NC(=O)/C(C)=C\C=C\[C@H](C)[C@H](O)[C@@H](C)[C@@H](O)[C@@H](C)[C@H](OC(C)=O)[C@@H]1C` [RIFAMPIN], the MIC was 25 µg/mL. `CC[C@@H](CO)NCCN[C@@H](CC)CO` [ETHAMBUTOL] showed an MIC of 12.5 µg/mL. For `Cc1ccc(C)n1-c1ccc(C(=O)n2[nH]c(=O)c3ccccc3c2=O)cc1`, the MIC was 0.4 µg/mL. Work on `NNC(=O)c1ccncc1` [ISONIAZID] yielded an MIC of 12.5 µg/mL.
